# Assay results as given in publication PMC8541911 (Molecular cell, 2021).
# How the values were obtained:
# Format in all cases: cell-based
# [1] = molecular target: mouse μOR receptor (Flag-μOR-2x) (Mus musculus, UniProt P42866, M72T); assay: G protein activation assay; settings: Gi1-2-3 and Goa-b activation, HEK293 cells
# μ-opioid receptor (μOR) = tested on: μ-opioid receptor (μOR)
# [2] = molecular target: T1, human μOR receptor fused to YFP (Homo sapiens, UniProt P35372)
# [3] = molecular target: T1, human μOR receptor fused to YFP; remark: listed apart in the source
# SNAP-μOR receptor = SNAP-μOR receptor (Homo sapiens, UniProt P35372)
# Sequence of SNAP-μOR receptor (P35372 whole entry): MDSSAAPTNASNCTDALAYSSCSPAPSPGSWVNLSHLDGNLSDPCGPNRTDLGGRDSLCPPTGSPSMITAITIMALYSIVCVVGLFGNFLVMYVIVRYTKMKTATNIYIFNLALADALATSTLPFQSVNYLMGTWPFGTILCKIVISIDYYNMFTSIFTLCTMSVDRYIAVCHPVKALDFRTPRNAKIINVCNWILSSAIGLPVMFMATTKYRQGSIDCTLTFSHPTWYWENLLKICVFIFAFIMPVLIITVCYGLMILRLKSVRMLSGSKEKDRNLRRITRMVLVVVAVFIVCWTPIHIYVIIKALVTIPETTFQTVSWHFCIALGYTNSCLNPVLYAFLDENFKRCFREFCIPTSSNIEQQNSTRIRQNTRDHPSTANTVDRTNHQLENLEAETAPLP
# Sequence of mouse μOR receptor (Flag-μOR-2x) (P42866 whole entry M72T): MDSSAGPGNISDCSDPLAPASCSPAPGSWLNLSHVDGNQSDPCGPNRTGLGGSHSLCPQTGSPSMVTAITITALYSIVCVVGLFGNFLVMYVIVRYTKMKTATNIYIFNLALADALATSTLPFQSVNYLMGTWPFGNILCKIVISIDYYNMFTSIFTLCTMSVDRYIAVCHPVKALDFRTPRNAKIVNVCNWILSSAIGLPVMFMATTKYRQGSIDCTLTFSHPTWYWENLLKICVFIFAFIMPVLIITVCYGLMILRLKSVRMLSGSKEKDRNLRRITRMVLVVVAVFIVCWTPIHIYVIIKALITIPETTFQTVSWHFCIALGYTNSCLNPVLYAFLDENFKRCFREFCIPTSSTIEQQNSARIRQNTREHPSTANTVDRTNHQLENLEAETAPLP
# T1 sequence (P35372 whole entry, the tested form may be a part): as the sequence (P35372 whole entry) above
Compound,Agonist behaviour in G protein assays [1],Classification of agonism and bias (μ-opioid receptor (μOR)),Recruitment of GRK2/5 (response) [2],Recruitment of β-arrestin-1/2 (response) [3],μOR internalization (response) (SNAP-μOR receptor)
C[C@@H](Cc1ccsc1)NC(=O)NC[C@H](Cc1ccc(O)cc1)N(C)C [PZM21],full agonists,G protein-biased full agonists,,,
COc1ccsc1CNCC[C@@]1(c2ccccn2)CCOC2(CCCC2)C1 [oliceridine],full agonists,G protein-biased full agonists,nearly no response,nearly no response,nearly no response
"[D-Ala^2, N-Me-Phe^4, Gly^5-ol]-Enkephalin acetate salt [DAMGO]",,unbiased full agonists,,,
